According to US20180055032A1, “ODORS FOR PSYLLID TRAPPING, REPELLING AND CONTROL” (The Regents of the University of California, priority 2011, published 2018):
Read-outs that look alike come from different tables or passages of the source.

Columns and labels:
Type in all cases: cell-based, Diaphorina citri
[1] = test system: neuron 2A (rhinarial plate on flagellomere 2); assay: single-sensillum electrophysiology, odor response of neuron 2A; settings: for response to inhibitory odors, 2A: Table 2, odor diluted to 10^−2, 50 μL in cartridge; for odor response (frequency of action potentials during stimulus minus baseline), 2A: Table 1, odor diluted to 1%, 50 μL in cartridge; for all read-outs here: key: 0, no response; +, >50 spikes/second; ++, >100 spikes/second; +++, >150 spikes/second
[2] = test system: neuron 2B (rhinarial plate on flagellomere 2); assay: single-sensillum electrophysiology, odor response of neuron 2B; settings: for response to inhibitory odors, 2B: Table 2, odor diluted to 10^−2, 50 μL in cartridge; for odor response (frequency of action potentials during stimulus minus baseline), 2B: Table 1, odor diluted to 1%, 50 μL in cartridge; for response to inhibitory odors, 2B: key: 0, no response; +, >50 spikes/second; ++, >100 spikes/second; +++, >150 spikes/second
[3] = test system: neuron 2C (rhinarial plate on flagellomere 2); assay: single-sensillum electrophysiology, odor response of neuron 2C; settings: for response to inhibitory odors, 2C: Table 2, odor diluted to 10^−2, 50 μL in cartridge; for odor response (frequency of action potentials during stimulus minus baseline), 2C: Table 1, odor diluted to 1%, 50 μL in cartridge; for response to inhibitory odors, 2C: key: 0, no response; +, >50 spikes/second; ++, >100 spikes/second; +++, >150 spikes/second
[4] = test system: neuron 4A (rhinarial plate on flagellomere 4); assay: single-sensillum electrophysiology, odor response of neuron 4A; settings: for response to inhibitory odors, 4A: Table 2, odor diluted to 10^−2, 50 μL in cartridge; for odor response (frequency of action potentials during stimulus minus baseline), 4A: Table 1, odor diluted to 1%, 50 μL in cartridge
[5] = test system: neuron 4B (rhinarial plate on flagellomere 4); settings: for odor response (frequency of action potentials during stimulus minus baseline), 4B: Table 1, odor diluted to 1%, 50 μL in cartridge
[6] = test system: neuron 4C (rhinarial plate on flagellomere 4); assay: single-sensillum electrophysiology, odor response of neuron 4C; settings: for response to inhibitory odors, 4C: Table 2, odor diluted to 10^−2, 50 μL in cartridge
[7] = test system: neuron 6A (rhinarial plate on flagellomere 6); assay: single-sensillum electrophysiology, odor response of neuron 6A; settings: for response to inhibitory odors, 6A: Table 2, odor diluted to 10^−2, 50 μL in cartridge; for odor response (frequency of action potentials during stimulus minus baseline), 6A: Table 1, odor diluted to 1%, 50 μL in cartridge
[8] = test system: neuron 6B (rhinarial plate on flagellomere 6); assay: single-sensillum electrophysiology, odor response of neuron 6B; settings: for response to inhibitory odors, 6B: Table 2, odor diluted to 10^−2, 50 μL in cartridge; for odor response (frequency of action potentials during stimulus minus baseline), 6B: Table 1, odor diluted to 1%, 50 μL in cartridge
[9] = test system: neuron 6C (rhinarial plate on flagellomere 6); assay: single-sensillum electrophysiology, odor response of neuron 6C; settings: for response to inhibitory odors, 6C: Table 2, odor diluted to 10^−2, 50 μL in cartridge; for odor response (frequency of action potentials during stimulus minus baseline), 6C: Table 1, odor diluted to 1%, 50 μL in cartridge
[10] = test system: neuron 7A (rhinarial plate on flagellomere 7); assay: single-sensillum electrophysiology, odor response of neuron 7A; settings: for response to inhibitory odors, 7A: Table 2, odor diluted to 10^−2, 50 μL in cartridge; for odor response (frequency of action potentials during stimulus minus baseline), 7A: Table 1, odor diluted to 1%, 50 μL in cartridge; for all read-outs here: key: 0, no response; +, >50 spikes/second; ++, >100 spikes/second; +++, >150 spikes/second
[11] = test system: neuron 7B (rhinarial plate on flagellomere 7); settings: for odor response (frequency of action potentials during stimulus minus baseline), 7B: Table 1, odor diluted to 1%, 50 μL in cartridge
[12] = test system: neuron 7C (rhinarial plate on flagellomere 7); assay: single-sensillum electrophysiology, odor response of neuron 7C; settings: for response to inhibitory odors, 7C: Table 2, odor diluted to 10^−2, 50 μL in cartridge; for odor response (frequency of action potentials during stimulus minus baseline), 7C: Table 1, odor diluted to 1%, 50 μL in cartridge
[13] = Table 2, odor diluted to 10^−2, 50 μL in cartridge

Compound | response to inhibitory odors, 2A [1] | response to inhibitory odors, 2B [2] | response to inhibitory odors, 2C [3] | response to inhibitory odors, 4A [4] | response to inhibitory odors, 4B [5, 13] | response to inhibitory odors, 4C [6] | response to inhibitory odors, 6A [7] | response to inhibitory odors, 6B [8] | response to inhibitory odors, 6C [9] | response to inhibitory odors, 7A [10] | response to inhibitory odors, 7B [11, 13] | response to inhibitory odors, 7C [12] | also measured
CN1CCCCC1 [N-methylpiperidine] | 0 | 0 | 0 | 0 | 0 | 0 | 0 | 0 | 0 | 0 | 0 |  | 
CCCCCC(=O)OCC [ethyl hexanoate] | 0 | 0 | 0 | 0 | 0 | 0 | 0 | 0 | 0 | 0 | 0 |  | 
CCCCC(=O)O [pentanoic acid] | 0 | 0 | 0 | 0 | 0 | 0 | 0 | 0 | 0 | 0 |  | 0 | 
CCCCCN [pentylamine] | 0 |  | 0 | 0 | 0 |  | 0 | 0 | 0 | 0 | 0 | 0 | 
CNC [dimethyl amine] | 0 | 0 | 0 | 0 |  | 0 | 0 | 0 |  | 0 |  |  | response to inhibitory odors, 4B [5]: 0; response to inhibitory odors, 7B [11]: 0
c1ccncc1 [pyridine] | 0 | 0 | 0 | 0 |  |  | 0 | 0 | 0 | 0 |  | 0 | response to inhibitory odors, 4B [5]: 0; response to inhibitory odors, 7B [11]: 0
Cl.Cl.NCCCCN [putrescine dihydrochloride] | 0 |  | 0 | 0 |  | 0 | 0 | 0 | 0 | 0 |  | 0 | response to inhibitory odors, 4B [5]: 0; response to inhibitory odors, 7B [11]: 0
C=C1CC[C@H]2C[C@@H]1C2(C)C [(−)-β-pinene] |  |  |  |  |  |  |  |  |  |  |  |  | odor response (frequency of action potentials during stimulus minus baseline), 2A [1]: 0; odor response (frequency of action potentials during stimulus minus baseline), 2B [2]: 0; odor response (frequency of action potentials during stimulus minus baseline), 2C [3]: 0; odor response (frequency of action potentials during stimulus minus baseline), 4A [4]: 0; odor response (frequency of action potentials during stimulus minus baseline), 4B [5]: + (+, >50 spikes/second); odor response (frequency of action potentials during stimulus minus baseline), 6A [7]: 0; odor response (frequency of action potentials during stimulus minus baseline), 6B [8]: + (+, >50 spikes/second); odor response (frequency of action potentials during stimulus minus baseline), 6C [9]: 0; odor response (frequency of action potentials during stimulus minus baseline), 7A [10]: 0; odor response (frequency of action potentials during stimulus minus baseline), 7B [11]: 0; odor response (frequency of action potentials during stimulus minus baseline), 7C [12]: 0
CCCCCCN [hexylamine] | 0 | 0 | 0 | 0 | 0 |  | 0 | 0 | 0 | 0 | 0 | 0 | 
CC(=O)O [acetic acid] | 0 | 0 | 0 | 0 |  | 0 | 0 |  | 0 | 0 |  |  | response to inhibitory odors, 7B [11]: 0
C=C(C)C1CC=C(C=O)CC1 (centres unmarked) [perillaldehyde] | 0 | 0 |  | 0 | 0 | 0 | 0 | 0 | 0 | 0 | 0 | 0 | odor response (frequency of action potentials during stimulus minus baseline), 2A [1]: 0; odor response (frequency of action potentials during stimulus minus baseline), 2B [2]: 0; odor response (frequency of action potentials during stimulus minus baseline), 4A [4]: 0; odor response (frequency of action potentials during stimulus minus baseline), 4B [5]: + (+, >50 spikes/second); odor response (frequency of action potentials during stimulus minus baseline), 4C ([6]; Table 1, odor diluted to 1%, 50 μL in cartridge): 0; odor response (frequency of action potentials during stimulus minus baseline), 6A [7]: 0; odor response (frequency of action potentials during stimulus minus baseline), 6B [8]: + (+, >50 spikes/second); odor response (frequency of action potentials during stimulus minus baseline), 6C [9]: 0; odor response (frequency of action potentials during stimulus minus baseline), 7A [10]: 0; odor response (frequency of action potentials during stimulus minus baseline), 7B [11]: 0; odor response (frequency of action potentials during stimulus minus baseline), 7C [12]: 0
CCC(=O)O [propionic acid] | 0 | 0 | 0 | 0 |  | 0 | 0 |  | 0 | 0 | 0 | 0 | 
CC1=CC[C@H]2C[C@@H]1C2(C)C [(−)-α-pinene] |  |  |  |  |  |  |  |  |  |  |  |  | odor response (frequency of action potentials during stimulus minus baseline), 2A [1]: 0; odor response (frequency of action potentials during stimulus minus baseline), 2B [2]: 0; odor response (frequency of action potentials during stimulus minus baseline), 2C [3]: 0; odor response (frequency of action potentials during stimulus minus baseline), 4A [4]: 0; odor response (frequency of action potentials during stimulus minus baseline), 4B [5]: + (+, >50 spikes/second); odor response (frequency of action potentials during stimulus minus baseline), 6A [7]: 0; odor response (frequency of action potentials during stimulus minus baseline), 6B [8]: + (+, >50 spikes/second); odor response (frequency of action potentials during stimulus minus baseline), 6C [9]: 0; odor response (frequency of action potentials during stimulus minus baseline), 7A [10]: 0; odor response (frequency of action potentials during stimulus minus baseline), 7B [11]: 0; odor response (frequency of action potentials during stimulus minus baseline), 7C [12]: 0
CCCCCCCCOC(C)=O [n-octyl acetate] | 0 | 0 | 0 | 0 |  | 0 | 0 | 0 | 0 | 0 | 0 | 0 | 
CC(=O)C(C)=O [2,3-butanedione] | 0 |  | 0 | 0 | 0 | 0 | 0 | 0 | 0 | 0 | 0 | 0 | 
CC(C)C(=O)O [isobutyric acid] | 0 | 0 | 0 | 0 |  |  | 0 | 0 |  | 0 | 0 | 0 | 
CC1CC(=O)O1 (stereo not drawn) [β-butyrolactone] | 0 | 0 | 0 | 0 |  | 0 | 0 | 0 | 0 | 0 | 0 | 0 | 
